Experimental data published in article PMC5840262, “Design, Synthesis and Evaluation of Branched RRWQWR-Based Peptides as Antibacterial Agents Against Clinically Relevant Gram-Positive and Gram-Negative Pathogens” (Frontiers in Microbiology, 2018).
≈ marks a conversion by molar mass, not a printed value.

Columns and labels:
[1] = tested on: Enterococcus faecalis ATCC 29212 (sensitive); type: cell-based; conditions: ATCC 29212, 18 h
Description: (§1) We screened all five peptides against the ATCC reference strains and the clinical isolates according to Method M7-A7 of the National Committee for Clinical Laboratory Standards (CLSI, [2007]). The MIC50 and MBC values were determined using a broth microdilution and growth inhibition method previously reported by Leon-Calvijo et al. ([2015]), with some modifications (Wiegand et al., [2008]). Briefly, the MIC50 experiments comprised a liquid-inhibition growth assay in a sterile, untreated, 96-well flat-bottom tissue culture plate. The bacteria were cultured overnight n Mueller Hinton agar; three colonies were transferred to 8 mL of Mueller Hilton broth and incubated at 37°C until the mid-exponential phase of growth. The turbidity of the cultures was measured and adjusted spectrophotometrically to a McFarland standard of 0.5, and then diluted to a final concentration of 5 × 10^7 colony forming units (CFU) per well. Stock solutions (2,000 μM) of each test peptide were serially diluted to final concentrations (per well) of 200, 100, 50, 25, 12.5, and 6.25 μM. Each concentration was evaluated in duplicate and each assay was performed in triplicate.
(§2) Wells containing Mueller Hilton broth with bacterial inoculum only served as bacterial-growth controls. Additional controls included Mueller Hilton broth alone (as blank) and Mueller Hilton broth with ciprofloxacin (2 μg/mL; as positive control). The microplate was incubated for 24 h at 37°C, and growth inhibition was measured by monitoring the optical density at 620 nm (OD620). The MIC50 was defined as the peptide concentration at which bacterial growth was inhibited by 50%.
(§3) To determine the MBC, an aliquot from each well of the MIC50 assay was spread onto Mueller Hilton agar. After 18 h at 37°C, the concentration that inhibited bacterial growth was determined. Each of these tests was performed four times. MBC was defined as the lowest concentration of peptide at which the number of bacteria was reduced by 99.9% in vitro (European Committee for Antimicrobial Susceptibility Testing, [2000]).

[2] = tested on: Enterococcus faecalis ATCC 51575 (resistant); type: cell-based
Description: as §1, §2, §3

[3] = tested on: Pseudomonas aeruginosa ATCC 10145 (sensitive); type: cell-based
Description: as §1, §2, §3

[4] = tested on: Pseudomonas aeruginosa ATCC 27853 (resistant); type: cell-based
Description: as §1, §2, §3

human erythrocytes = assay: Hemolytic activity; type: cell-based; conditions: red cells of human, 2 h
Description: Human erythrocytes collected from the blood samples of healthy humans were harvested by centrifugation for 7 min at 162 × g and washed three times in phosphate-buffered saline (PBS). The erythrocytes (2% hematocrit in PBS) were incubated with peptide molecules at several concentrations (6.25, 12.5, 25, 50, and 100 μM) for 2 h at 37°C. PBS was used as negative control for hemolysis, and sterile distilled water was used as positive control (100% hemolysis). The plate was subsequently centrifuged at 1,459 × g for 10 min at 4°C. Aliquots of the supernatant from each well (75 μL) were carefully transferred to a new sterile 96-well plate, and hemolytic activity was evaluated by measuring the OD492 using an Asys Expert Plus Microplate reader. The experiments were performed in duplicate, and hemolytic activity was calculated for each peptide.

[5] = tested on: Gram-negative ATCC strains (K. pneumoniae 13883 and 700603, P. aeruginosa 10145 and 27853)
Text: We determined the therapeutic index of each peptide, which we defined as the ratio of Maximum Hemolytic Activity (Hmax) to MIC50 (Hmax/MIC50).
The therapeutic index (TI) is a ratio of the toxic dose of a substance to its therapeutically-active dose and can be calculated different ways (e.g., LD50/ED50). Here, we calculated a TI value for each peptide against all the Gram-positive or the Gram-negative ATCC strains, by dividing its Hmax by its MIC50 for the given group of strains. […] Additionally, to make our quantitative analysis more robust [geometric mean (Khachatryan et al., [2017]) and fold values], we have included MIC50 values for these peptides against S. aureus and K. pneumoniae that we previously obtained using the same assay, the M7-A7 method of the National Committee for Clinical Laboratory Standards (Leon-Calvijo et al., [2015]).

- MIC50 ([2]; ATCC 51575, 24 h): >200.0 µM
- MIC50 ([3]; ATCC 10145, 24 h): 111.7 µM (≈ 223 µg/mL)
- MIC50 ([4]; ATCC 27853, 24 h): 99.6 µM (≈ 199 µg/mL)
- Gm, geometric mean of MIC50 values [5]: 105.5
SMILES: CSCC[C@H](NC(=O)[C@H](CCCNC(=N)N)NC(=O)[C@H](Cc1c[nH]c2ccccc12)NC(=O)[C@H](CCC(N)=O)NC(=O)[C@H](Cc1c[nH]c2ccccc12)NC(=O)[C@H](CCCNC(=N)N)NC(=O)[C@H](CCCNC(=N)N)NC(=O)[C@H](CS)NC(=O)[C@H](CCCCN)NC(=O)[C@@H](N)Cc1ccccc1)C(=O)N[C@@H](CCCCN)C(=O)N[C@@H](CCCCN)C(=O)N[C@@H](CC(C)C)C(=O)NCC(=O)N[C@@H](C)C(N)=O [LfcinB (17–31), reference compound]
- MBC [1]: >200.0 µM
- MBC ([2]; ATCC 51575, 18 h): >200.0 µM
- MBC ([3]; ATCC 10145, 18 h): >200.0 µM
- MBC ([4]; ATCC 27853, 18 h): >200.0 µM
- H50, concentration of peptide leading to 50% hemolysis (human erythrocytes): >100 µM
